Results taken from ChEMBL document CHEMBL1201862, “PubChem BioAssay data set” (2004).
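Five concentrations, 48 hours, 96-well plates. GI50 = concentration required for 50% inhibition of growth.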 The source made the active and inactive calls. Rule as the data show it: active = GI50 up to about 1.1 µM and inactive = higher.

Key:
Assay in all cases: NCI anticancer screen, dose series, 48 h
786-0 = test system: 786-0
A498 = test system: A498
A549 = test system: A549
ACHN = test system: ACHN
CAKI-1 = test system: CAKI-1
CCRF-CEM = test system: CCRF-CEM
COLO 205 = test system: COLO 205
DLD-1 = test system: DLD-1
DMS-114 = test system: DMS-114
DMS-273 = test system: DMS-273
EKVX = test system: EKVX
HCC 2998 = test system: HCC 2998
HCT-116 = test system: HCT-116
HCT-15 = test system: HCT-15
HL-60 = test system: HL-60
HOP-18 = test system: HOP-18
HOP-62 = test system: HOP-62
HOP-92 = test system: HOP-92
HT-29 = test system: HT-29
IGROV-1 = test system: IGROV-1
K562 = test system: K562
KM-20L2 = test system: KM-20L2
KM12 = test system: KM12
LOX IMVI = test system: LOX IMVI
LXFL 529 = test system: LXFL 529
M14 = test system: M14
M19-MEL = test system: M19-MEL
MOLT-4 = test system: MOLT-4
Malme-3M = test system: Malme-3M
NCI-H226 = test system: NCI-H226
NCI-H23 = test system: NCI-H23
NCI-H460 = test system: NCI-H460
NCI-H522 = test system: NCI-H522
OVCAR-3 = test system: OVCAR-3
OVCAR-4 = test system: OVCAR-4
OVCAR-5 = test system: OVCAR-5
OVCAR-8 = test system: OVCAR-8
RPMI-8226 = test system: RPMI-8226
RXF 393 = test system: RXF 393
SF-268 = test system: SF-268
SF-295 = test system: SF-295
SF-539 = test system: SF-539
SK-MEL-28 = test system: SK-MEL-28
SK-MEL-2 = test system: SK-MEL-2
SK-MEL-5 = test system: SK-MEL-5
SK-OV-3 = test system: SK-OV-3
SN12C = test system: SN12C
SNB-19 = test system: SNB-19
SNB-75 = test system: SNB-75
SNB-78 = test system: SNB-78
SR = test system: SR
SW-620 = test system: SW-620
TK-10 = test system: TK-10
U-251 = test system: U-251
UACC-257 = test system: UACC-257
UACC-62 = test system: UACC-62
UO-31 = test system: UO-31
XF498 = test system: XF498

Cc1ccc(NC(=O)CCC(=O)C2Cc3ccccc3C2=O)cc1C (stereo not given)
GI50 (786-0): > 100 µM (inactive) | GI50 (A498): > 100 µM (inactive) | GI50 (A549): > 100 µM (inactive) | GI50 (ACHN): > 100 µM (inactive) | GI50 (CAKI-1): > 100 µM (inactive) | GI50 (CCRF-CEM): > 100 µM (inactive) | GI50 (COLO 205): > 100 µM (inactive) | GI50 (DLD-1): > 100 µM (inactive) | GI50 (DMS-114): > 100 µM (inactive) | GI50 (DMS-273): > 100 µM (inactive) | GI50 (EKVX): > 100 µM (inactive) | GI50 (HCC 2998): > 100 µM (inactive) | GI50 (HCT-116): > 100 µM (inactive) | GI50 (HCT-15): > 100 µM | GI50 (HL-60): > 100 µM (inactive) | GI50 (HOP-18): > 100 µM (inactive) | GI50 (HOP-62): > 100 µM (inactive) | GI50 (HOP-92): > 100 µM (inactive) | GI50 (HT-29): > 100 µM (inactive) | GI50 (IGROV-1): > 100 µM (inactive) | GI50 (K562): > 100 µM (inactive) | GI50 (KM-20L2): > 100 µM (inactive) | GI50 (KM12): > 100 µM (inactive) | GI50 (LOX IMVI): > 100 µM (inactive) | GI50 (LXFL 529): > 100 µM (inactive) | GI50 (M14): > 100 µM (inactive) | GI50 (M19-MEL): > 100 µM (inactive) | GI50 (MOLT-4): > 100 µM (inactive) | GI50 (Malme-3M): > 100 µM (inactive) | GI50 (NCI-H226): > 100 µM (inactive) | GI50 (NCI-H23): > 100 µM (inactive) | GI50 (NCI-H460): > 100 µM (inactive) | GI50 (NCI-H522): > 100 µM (inactive) | GI50 (OVCAR-3): > 100 µM (inactive) | GI50 (OVCAR-4): > 100 µM (inactive) | GI50 (OVCAR-5): > 100 µM (inactive) | GI50 (OVCAR-8): > 100 µM (inactive) | GI50 (RPMI-8226): > 100 µM (inactive) | GI50 (RXF 393): > 100 µM (inactive) | GI50 (SF-268): > 100 µM (inactive) | GI50 (SF-295): > 100 µM (inactive) | GI50 (SF-539): > 100 µM (inactive) | GI50 (SK-MEL-28): > 100 µM (inactive) | GI50 (SK-MEL-2): > 100 µM (inactive) | GI50 (SK-MEL-5): > 100 µM (inactive) | GI50 (SK-OV-3): > 100 µM (inactive) | GI50 (SN12C): > 100 µM (inactive) | GI50 (SNB-19): > 100 µM (inactive) | GI50 (SNB-75): > 100 µM (inactive) | GI50 (SNB-78): > 100 µM (inactive) | GI50 (SR): > 100 µM (inactive) | GI50 (SW-620): > 100 µM (inactive) | GI50 (TK-10): > 100 µM (inactive) | GI50 (U-251): > 100 µM (inactive) | GI50 (UACC-257): > 100 µM (inactive) | GI50 (UACC-62): > 100 µM (inactive) | GI50 (UO-31): > 100 µM (inactive) | GI50 (XF498): > 100 µM (inactive)

Cc1cc(Cl)ccc1NC(=O)C(=O)C(C(=O)c1ccccc1)C1OC(=O)c2ccccc21 (stereo not given)
GI50 (786-0): > 100 µM (inactive) | GI50 (A498): > 100 µM (inactive) | GI50 (A549): > 100 µM (inactive) | GI50 (ACHN): > 100 µM (inactive) | GI50 (CAKI-1): > 100 µM (inactive) | GI50 (CCRF-CEM): > 100 µM (inactive) | GI50 (COLO 205): > 100 µM (inactive) | GI50 (DLD-1): > 100 µM (inactive) | GI50 (DMS-114): > 100 µM (inactive) | GI50 (DMS-273): > 100 µM (inactive) | GI50 (EKVX): > 100 µM (inactive) | GI50 (HCC 2998): > 100 µM (inactive) | GI50 (HCT-116): > 100 µM (inactive) | GI50 (HCT-15): > 100 µM | GI50 (HL-60): > 100 µM (inactive) | GI50 (HOP-18): > 100 µM (inactive) | GI50 (HOP-62): > 100 µM (inactive) | GI50 (HOP-92): > 100 µM (inactive) | GI50 (HT-29): > 100 µM (inactive) | GI50 (IGROV-1): > 100 µM (inactive) | GI50 (K562): > 100 µM (inactive) | GI50 (KM-20L2): > 100 µM (inactive) | GI50 (KM12): > 100 µM (inactive) | GI50 (LOX IMVI): > 100 µM (inactive) | GI50 (LXFL 529): > 100 µM (inactive) | GI50 (M14): > 100 µM (inactive) | GI50 (M19-MEL): > 100 µM (inactive) | GI50 (MOLT-4): > 100 µM (inactive) | GI50 (Malme-3M): > 100 µM (inactive) | GI50 (NCI-H226): > 100 µM (inactive) | GI50 (NCI-H23): > 100 µM (inactive) | GI50 (NCI-H460): > 100 µM (inactive) | GI50 (NCI-H522): > 100 µM (inactive) | GI50 (OVCAR-4): > 100 µM (inactive) | GI50 (OVCAR-5): > 100 µM (inactive) | GI50 (OVCAR-8): > 100 µM (inactive) | GI50 (RPMI-8226): > 100 µM (inactive) | GI50 (RXF 393): > 100 µM (inactive) | GI50 (SF-268): > 100 µM (inactive) | GI50 (SF-295): > 100 µM (inactive) | GI50 (SF-539): > 100 µM (inactive) | GI50 (SK-MEL-28): > 100 µM (inactive) | GI50 (SK-MEL-2): > 100 µM (inactive) | GI50 (SK-MEL-5): > 100 µM (inactive) | GI50 (SK-OV-3): > 100 µM (inactive) | GI50 (SN12C): > 100 µM (inactive) | GI50 (SNB-19): > 100 µM (inactive) | GI50 (SNB-75): > 100 µM (inactive) | GI50 (SNB-78): > 100 µM (inactive) | GI50 (SR): > 100 µM (inactive) | GI50 (SW-620): > 100 µM (inactive) | GI50 (TK-10): > 100 µM (inactive) | GI50 (U-251): > 100 µM (inactive) | GI50 (UACC-257): > 100 µM (inactive) | GI50 (UACC-62): > 100 µM (inactive) | GI50 (UO-31): > 100 µM (inactive) | GI50 (XF498): > 100 µM (inactive)
